Measured values published in publication PMC4960487, “Discovery and characterization of novel small-molecule CXCR4 receptor agonists and antagonists” (Scientific Reports, 2016).

Molecular target: CXCR4 (Homo sapiens, UniProt P61073)
Test: fura-2 calcium mobilization in C8161 melanoma cells, antagonism of SDF-1
Assay type: cell-based

CXCR4, sequence (P61073 whole entry): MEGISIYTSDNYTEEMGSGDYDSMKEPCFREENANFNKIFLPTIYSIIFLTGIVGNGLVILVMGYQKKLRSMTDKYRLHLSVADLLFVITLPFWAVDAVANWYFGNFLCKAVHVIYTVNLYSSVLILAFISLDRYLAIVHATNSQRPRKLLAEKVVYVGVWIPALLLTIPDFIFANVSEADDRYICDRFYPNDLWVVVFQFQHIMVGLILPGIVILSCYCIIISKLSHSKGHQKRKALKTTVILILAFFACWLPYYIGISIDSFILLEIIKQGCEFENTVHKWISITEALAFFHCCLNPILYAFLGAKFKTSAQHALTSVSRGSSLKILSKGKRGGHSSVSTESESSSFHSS

IC50	Substance
1000 nM	NUCC-54120
300 nM	NUCC-388
1000 nM	NUCC-392
